Calls of active or inactive are those of the source. The rule behind the calls is not given here.
The molecules below were run on in vivo angiogenesis, blood vessel count (assay: reduction of blood vessel formation in vivo – HTS, in vivo study (AID 732;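 note: zebrafish embryos dosed at one day post fertilization; 0% = reference inhibitor and 100% = plate mean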)). Details: hits give low values;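 tested at 30 µM in the well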.

Compound | vessel count % control
NC(=O)COc1c(F)cc(SCCNS(=O)(=O)c2ccccc2)cc1F | 116% (inactive)
O=[N+]([O-])c1ccc(-c2nc(-c3ccc(F)cc3)c(-c3ccncc3)[nH]2)cc1 | 124% (inactive)
CC(C)NCC(O)c1ccc(NS(C)(=O)=O)cc1 (centres undefined) | 95.6% (inactive)
NC1(C(=O)O)CCc2cc(C(=O)O)ccc21 (centres undefined) | 79.6% (inactive)
COc1cccc2c1[C@@H]1CN(CCCCn3c(=O)[nH]c4c(sc5ncc(-c6ccccc6)nc54)c3=O)C[C@@H]1CO2 | 87.9% (inactive)
NCCNC(=O)c1ccc(Cl)cc1 | 106% (inactive)
COc1ccc(NC(=O)/C=C/c2ccc(Cl)cc2)cc1 | 106% (inactive)
CCc1c(C)[nH]c2c1C(=O)C(CN1CCOCC1)CC2 (centres undefined) | 93.5% (inactive)
CC#C[C@]1(O)CC[C@H]2[C@@H]3CCC4=CC(=O)CCC4=C3[C@@H](c3ccc(N(C)C)cc3)C[C@@]21C | 106% (inactive)
CN1CCc2cc(O)cc3c2[C@H]1Cc1ccc(O)c(O)c1-3 | 96.7% (inactive)
Cc1cccc(C2CN(C)CCc3c2cc(O)c(O)c3Cl)c1 (centres undefined) | 96.5% (inactive)
Nc1nc(N)c2nc(CNc3ccc(C(=O)NC(CCC(=O)O)C(=O)O)cc3)cnc2n1 (centres undefined) | 99.6% (inactive)
O=C1OC(=O)C2C3CCC(O3)C12 (centres undefined) | 111% (inactive)
CCCC(C(=O)OCCN(CC)CC)(c1ccccc1)c1ccccc1 | 98% (inactive)
CC(C)(C)NCC(O)c1cc(O)cc(O)c1 (centres undefined) | 93.9% (inactive)
N.N.N.N.N.N.N.N.N.N.N.N.N.N.O.O.[Cl-].[Cl-].[Cl-].[Cl-].[Cl-].[Cl-].[Ru+4].[Ru+5].[Ru+5] | 123% (inactive)
CCSC(=N)N | 62.2% (inactive)
CC(Cc1ccc(O)cc1)NCC(O)c1cc(O)cc(O)c1 (centres undefined) | 114% (inactive)
N[C@@]1(C(=O)O)CC[C@@H](C(=O)O)C1 | 102% (inactive)
O=Nc1c(-c2c(O)[nH]c3ccc(Cl)cc23)[nH]c2ccccc12 | 88.2% (inactive)
C=CC[C@H](N)C(=O)O | 111% (inactive)
CNc1cc(NS(=O)(=O)c2ccc(N)cc2)nc(NC)n1 | 81.3% (inactive)
Cn1c(=O)c2[nH]cnc2n(C)c1=O | 105% (inactive)
CC1CN(S(=O)(=O)c2cccc3cnccc23)CCN1 (centres undefined) | 97.8% (inactive)
Cc1sc2ccccc2c1CC1=NCCN1 | 92.5% (inactive)

Compound | vessel count % control
OC1(c2ccc(Cl)cc2)CCN(Cc2c[nH]c3ccccc23)CC1 | 96.6% (inactive)
N#CC(C#N)=Cc1cc(O)c(O)c(O)c1 | 107% (inactive)
N[C@H](CCC(=O)NCS(=O)(=O)O)C(=O)O | 102% (inactive)
COc1cc(C[C@@H](C)N)c(OC)cc1I | 93.2% (inactive)
CCn1c(=O)[nH]c2cc(Cl)c(Cl)cc21 | 87.7% (inactive)
O=C1CCC(N2C(=O)c3ccccc3C2=O)C(=O)N1 (centres undefined) | 108% (inactive)
CN/C(=C\[N+](=O)[O-])NCCSCc1ccc(CN(C)C)o1 | 112% (inactive)
CNCCCN1c2ccccc2CCc2ccccc21 | 82.9% (inactive)
Cc1nc2c([nH]1)c(=O)n(C)c(=O)n2Cc1ccco1 | 93.1% (inactive)
Cc1ccc2c(c1)C(N1CCN(C)CC1)=Nc1cccnc1N2 | 127% (inactive)
O=c1cc(-c2ccccc2)[nH]c2nc(Cl)ccc12 | 0% (inactive)
COc1ccc2c(c1)c(CC(=O)O)c(C)n2C(=O)c1ccccc1 | 116% (inactive)
N#C/C(=C\c1ccc(O)c(O)c1)C(=O)NCc1ccccc1 | 95.6% (inactive)
NCCCP(=O)(O)O | 91.6% (inactive)
N#CC(C#N)=Cc1ccc(O)c(O)c1 | 119% (inactive)
O=C1C(c2c(O)[nH]c3ccc(F)cc23)=Nc2ccccc21 | 59% (inactive)
CCN(CC)CCNC(=O)c1cc(S(C)(=O)=O)ccc1OC | 68.7% (inactive)
C[N+](C)(C)CC=O | 104% (inactive)
Nc1ccc(CCNc2ncnc3c2ncn3C2OC(CO)C(O)C2O)cc1 (centres undefined) | 110% (inactive)
Cc1ccc(=O)n(-c2ccccc2)c1 | 92.7% (inactive)
CCCCCCCCCCCCCCCC(=O)OC(CC(=O)O)C[N+](C)(C)C (centres undefined) | 92% (inactive)
Nc1ccc(CCN2CCN(c3cccc(C(F)(F)F)c3)CC2)cc1 | 96.3% (inactive)
Clc1ccc(N2CCN(Cc3c[nH]c4ncccc34)CC2)cc1 | 83.7% (inactive)
NC(=O)NO | 97.8% (inactive)
NC(=O)N1c2ccccc2C=Cc2ccccc21 | 96.4% (inactive)

Compound | vessel count % control
O=C(O)CP(=O)(O)O | 79.8% (inactive)
CC(N)C1CCC(C(=O)Nc2ccncc2)CC1 (centres undefined) | 111% (inactive)
CN(C)C(N)=NCCC[C@H](N)C(=O)O | 93.3% (inactive)
C[C@@H]1C(=O)NC2=Nc3cccc(Cl)c3CN21 | 119% (inactive)
O=C(O)c1cc([N+](=O)[O-])ccc1NCCCc1ccccc1 | 92.5% (inactive)
Nc1nc2c(ncn2COC(CO)CO)c(=O)[nH]1 | 84.5% (inactive)
Cn1cc(C2=C(c3ccc(Cl)cc3Cl)C(=O)NC2=O)c2ccccc21 | 0% (inactive)
CN1CCN(CCCN2c3ccccc3Sc3ccc(C(F)(F)F)cc32)CC1 | 105% (inactive)
N#C/C(=C\c1ccc(O)c(O)c1)C(=O)c1ccc(O)c(O)c1 | 124% (inactive)
COC(=O)C1=CCCN(C)C1 | 66% (inactive)
CC(=O)Oc1cc(C(C)C)c(OCCN(C)C)cc1C | 109% (inactive)
NC(=O)c1cnccn1 | 76.5% (inactive)
Cc1cc(C)c(/C=C2\C(=O)Nc3ccccc32)[nH]1 | 0% (inactive)
CC(=O)[C@H]1CC[C@H]2[C@@H]3CCC4=CC(=O)CC[C@]4(C)[C@H]3CC[C@]12C | 102% (inactive)
COc1ccc2c(c1)CCC1C2CC[C@@]2(C)C1CC[C@@H]2NCCCCCCN1C(=O)C=CC1=O (some centres undefined) | 0% (inactive)
CN1CC[C@@]2(C)c3cc(O)ccc3N(C)C12 (some centres undefined) | 95.1% (inactive)
CC(N)=O | 108% (inactive)
Clc1cnc(Oc2ccc(Oc3ncc(Cl)cc3Cl)cc2)c(Cl)c1 | 96.7% (inactive)
N#CC(Cc1ccc(O)c(O)c1)C(=O)N1CCc2ccccc21 (centres undefined) | 132% (inactive)
CN1C[C@H](CNC(=O)OCc2ccccc2)C[C@@H]2c3cccc4c3c(cn4C)C[C@H]21 | 111% (inactive)
S=C(S)OC1CC2CC1C1CCCC21 (centres undefined) | 86.8% (inactive)
CC(=O)OCC(=O)[C@@]1(O)CC[C@H]2[C@@H]3CCC4=CC(=O)CC[C@]4(C)[C@H]3C(=O)C[C@@]21C | 97.3% (inactive)
CCOC(=O)C1=C(C)NC(C)=C(C(=O)OC)C1c1cccc([N+](=O)[O-])c1 (centres undefined) | 89.9% (inactive)
CN1C(C(=O)Nc2ccccn2)=C(O)c2ccccc2S1(=O)=O | 110% (inactive)
